Experimental data taken from patent US9458184B2, “Compositions of TLR7 and/or TLR8 agonists conjugated to lipids” (CAYLA, priority 2012, dated 2016).

How the values were obtained:
human TLR7 = biological target: T1, human TLR7 (Homo sapiens, UniProt Q9NYK1); assay: HEK-Blue hTLR7 NF-κB/AP-1 SEAP reporter cell assay
T1 sequence (Q9NYK1 27-1049): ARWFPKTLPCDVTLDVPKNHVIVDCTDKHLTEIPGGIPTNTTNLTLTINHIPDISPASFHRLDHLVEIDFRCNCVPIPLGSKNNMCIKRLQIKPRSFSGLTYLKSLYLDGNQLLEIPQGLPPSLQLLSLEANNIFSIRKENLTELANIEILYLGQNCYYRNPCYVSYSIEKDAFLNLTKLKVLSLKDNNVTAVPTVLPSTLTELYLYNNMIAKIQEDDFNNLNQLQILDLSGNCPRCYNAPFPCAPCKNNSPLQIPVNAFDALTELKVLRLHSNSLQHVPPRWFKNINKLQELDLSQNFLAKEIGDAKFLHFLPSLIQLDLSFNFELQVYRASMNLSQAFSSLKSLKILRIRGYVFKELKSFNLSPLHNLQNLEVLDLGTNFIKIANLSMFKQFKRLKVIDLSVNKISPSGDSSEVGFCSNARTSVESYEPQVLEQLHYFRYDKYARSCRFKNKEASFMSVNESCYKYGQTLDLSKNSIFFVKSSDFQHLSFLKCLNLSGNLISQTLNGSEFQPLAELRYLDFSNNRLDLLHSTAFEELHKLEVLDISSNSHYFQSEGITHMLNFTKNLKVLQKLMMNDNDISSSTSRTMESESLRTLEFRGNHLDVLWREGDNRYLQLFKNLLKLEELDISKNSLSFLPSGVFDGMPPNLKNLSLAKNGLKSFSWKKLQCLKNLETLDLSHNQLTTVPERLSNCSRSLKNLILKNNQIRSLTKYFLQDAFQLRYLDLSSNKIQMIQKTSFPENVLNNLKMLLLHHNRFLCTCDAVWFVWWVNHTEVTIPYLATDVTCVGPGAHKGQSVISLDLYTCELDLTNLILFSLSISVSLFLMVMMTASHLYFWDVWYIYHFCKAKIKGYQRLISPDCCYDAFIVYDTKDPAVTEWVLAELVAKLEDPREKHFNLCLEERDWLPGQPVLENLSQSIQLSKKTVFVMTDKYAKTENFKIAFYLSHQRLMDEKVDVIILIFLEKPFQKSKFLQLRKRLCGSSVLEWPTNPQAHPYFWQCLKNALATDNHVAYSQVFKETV

B16-F1 tumor = assay: Mouse B16 tumor model, intratumoral injection; assay type: in vivo, C57BL/6 mice; conditions: by day 28, 3 intra-tumoral injections, 40 μg in 100 μl
[1] = tested on: mouse B16 melanoma cell line; assay: Cell transfection with SEAP plasmid, B16; assay type: cell-based; conditions: complexed with pVitro14 LGFP SEAP plasmid, B16, 48 hours
plasmid DNA = assay type: physicochemical
human HEK293 cell line = assay: Cell transfection with SEAP plasmid, HEK293; assay type: cell-based; conditions: complexed with pVitro14 LGFP SEAP plasmid, HEK293, 48 hours

| SMILES | TLR7 activity (NF-κB/AP-1-inducible SEAP reporter) (human TLR7) | survival of mice (B16-F1 tumor) | transfection (SEAP reporter gene expression) [1] | complex formation with pDNA (retardation of pDNA migration in gel) (plasmid DNA) | transfection (SEAP reporter gene expression) (human HEK293 cell line) |
| --- | --- | --- | --- | --- | --- |
| CCCCNc1nc(N)c2nc(O)n(Cc3ccc(C(=O)NCC(=O)NCCCC[C@H](NCCCP(=O)(OCCC(C)CCCC(C)CCCC(C)CCCC(C)C)OCCC(C)CCCC(C)CCCC(C)CCCC(C)C)C(=O)NCCCNCCCCNCCCN)cc3)c2n1 (stereo in doubt) [CL493, (S)-bis(3,7,11,15-tetramethylhexadecyl) 19-amino-5-(4-(2-(4-((6-amino-2-(butylamino)-8-hydroxy-9H-purin-9-yl)methyl)benzamido)acetamido)butyl)-6-oxo-4,7,11,16-tetraazanonadecylphosphonate] | strong and specific TLR7 activity | – | – | – | – |
| CCCCNc1nc(N)c2nc(O)n(Cc3ccc(C(=O)NCC(=O)NCCCNCCCCNCCCNCCCP(=O)(OCCC(C)CCCC(C)CCCC(C)CCCC(C)C)OCCC(C)CCCC(C)CCCC(C)CCCC(C)C)cc3)c2n1 (centres unmarked) [CL347, bis(3,7,11,15-tetramethylhexadecyl) 1-(4-((6-amino-2-(butylamino)-8-hydroxy-9H-purin-9-yl)methyl)phenyl)-1,4-dioxo-2,5,9,14,18-pentaazahenicosan-21-ylphosphonate] | strong and specific TLR7 activity | no survival | – | – | – |
| CCCCCCCCCCCCCCCCOP(=O)(CCCN[C@@H](CCCCNC(=O)CNC(=O)c1ccc(Cn2c(O)nc3c(N)nc(NCCCC)nc32)cc1)C(=O)NCCCNCCCCNCCCN)OCCCCCCCCCCCCCCCC [CL481, (S)-dihexadecyl 19-amino-5-(4-(2-(4-((6-amino-2-(butylamino)-8-hydroxy-9H-purin-9-yl)methyl)benzamido)acetamido)butyl)-6-oxo-4,7,11,16-tetraazanonadecylphosphonate] | strong and specific TLR7 activity | – | inability to transfect cells | inability to form complex with plasmid DNA | inability to transfect cells |
| CCCCNc1nc(N)c2nc(O)n(Cc3ccc(C(=O)NCCCNCCCCNCCCNCCCP(=O)(OCCC(C)CCCC(C)CCCC(C)CCCC(C)C)OCCC(C)CCCC(C)CCCC(C)CCCC(C)C)cc3)c2n1 (centres unmarked) [CL346, bis(3,7,11,15-tetramethylhexadecyl) 1-(4-((6-amino-2-(butylamino)-8-hydroxy-9H-purin-9-yl)methyl)phenyl)-1-oxo-2,6,11,15-tetraazaoctadecan-18-ylphosphonate] | strong and specific TLR7 activity | – | – | – | – |
